Source: patent EP4745137A1 (Gluetacs Therapeutics (Shanghai) Co., Ltd., priority 2023, dated 2025)

How the values were obtained:
[1] = molecular target: T1, human Cereblon WT GST-tagged protein (Homo sapiens, UniProt Q96SW2); assay: CRBN-binding affinity by HTRF (CEREBLON BINDING kit); details: HTRF inhibitory activity, CEREBLON BINDING kit; read-out: HTRF IC50
T1 construct: purchased CISBIO 64BDCRBNPEH

IKZF1 = molecular target: T2, IKZF1 (Homo sapiens, UniProt Q13422+Q96SW2); assay: Western-blot assay of substrate protein degradation in hPBMCs, IKZF1; format: cell-based; details: 24 hours of compound treatment, compounds tested at 50 nM and 500 nM (concentration of the table not stated)
T2 construct: endogenous in cells; host or cells: hPBMCs (Milecell Biotechnologies)

WEE1 = molecular target: T3, WEE1 (Homo sapiens, UniProt P30291+Q96SW2); assay: Western-blot assay of substrate protein degradation in hPBMCs, WEE1; format: cell-based; details: 24 hours of compound treatment, compounds tested at 50 nM and 500 nM (concentration of the table not stated)
T3 construct: endogenous in cells; host or cells: hPBMCs (Milecell Biotechnologies)

GSPT1 = molecular target: T4, GSPT1 (Homo sapiens, UniProt P15170+Q96SW2); assay: Western-blot assay of substrate protein degradation in hPBMCs, GSPT1; format: cell-based; details: 24 hours of compound treatment, compounds tested at 50 nM and 500 nM (concentration of the table not stated)
T4 construct: endogenous in cells; host or cells: hPBMCs (Milecell Biotechnologies)

IKZF3 = molecular target: T5, IKZF3 (Homo sapiens, UniProt Q96SW2+Q9UKT9); assay: Western-blot assay of substrate protein degradation in hPBMCs, IKZF3; format: cell-based; details: 24 hours of compound treatment, compounds tested at 50 nM and 500 nM (concentration of the table not stated)
T5 construct: endogenous in cells; host or cells: hPBMCs (Milecell Biotechnologies)

CK1α = molecular target: T6, CK1α (Homo sapiens, UniProt P48729+Q96SW2); assay: Western-blot assay of substrate protein degradation in hPBMCs, CK1α; format: cell-based; details: 24 hours of compound treatment, compounds tested at 50 nM and 500 nM (concentration of the table not stated)
T6 construct: endogenous in cells; host or cells: hPBMCs (Milecell Biotechnologies)

IKZF2 = molecular target: T7, IKZF2 (Homo sapiens, UniProt Q96SW2+Q9UKS7); assay: Western-blot assay of substrate protein degradation in hPBMCs, IKZF2; format: cell-based; details: 24 hours of compound treatment, compounds tested at 50 nM and 500 nM (concentration of the table not stated)
T7 construct: endogenous in cells; host or cells: hPBMCs (Milecell Biotechnologies)
T7 sequence (Q9UKS7 whole entry): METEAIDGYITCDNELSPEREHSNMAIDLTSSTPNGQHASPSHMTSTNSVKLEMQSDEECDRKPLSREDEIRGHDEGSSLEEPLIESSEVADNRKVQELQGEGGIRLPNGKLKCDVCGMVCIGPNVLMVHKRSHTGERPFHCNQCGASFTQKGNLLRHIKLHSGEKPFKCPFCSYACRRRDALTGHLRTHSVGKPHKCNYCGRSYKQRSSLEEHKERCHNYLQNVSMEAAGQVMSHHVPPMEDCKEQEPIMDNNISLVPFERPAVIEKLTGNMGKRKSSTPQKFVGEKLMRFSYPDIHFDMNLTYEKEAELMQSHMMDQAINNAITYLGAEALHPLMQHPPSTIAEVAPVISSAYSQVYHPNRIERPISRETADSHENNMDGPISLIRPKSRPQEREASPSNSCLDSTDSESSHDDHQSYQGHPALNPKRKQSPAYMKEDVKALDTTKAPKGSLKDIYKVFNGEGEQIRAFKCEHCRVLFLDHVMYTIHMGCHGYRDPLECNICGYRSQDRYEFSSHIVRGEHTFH
T7 sequence (Q96SW2 whole entry): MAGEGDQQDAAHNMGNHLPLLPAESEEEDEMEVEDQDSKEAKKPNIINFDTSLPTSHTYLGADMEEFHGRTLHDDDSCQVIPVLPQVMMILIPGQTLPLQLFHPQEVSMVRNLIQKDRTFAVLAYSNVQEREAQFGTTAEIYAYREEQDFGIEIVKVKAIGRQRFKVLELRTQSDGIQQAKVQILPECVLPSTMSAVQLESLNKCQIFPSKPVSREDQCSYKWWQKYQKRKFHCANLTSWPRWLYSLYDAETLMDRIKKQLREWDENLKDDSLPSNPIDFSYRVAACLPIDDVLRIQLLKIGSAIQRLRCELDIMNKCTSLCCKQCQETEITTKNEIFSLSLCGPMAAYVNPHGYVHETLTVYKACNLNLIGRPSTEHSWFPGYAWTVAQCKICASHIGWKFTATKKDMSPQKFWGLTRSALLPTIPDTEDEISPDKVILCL
T7 sequence (Q16531 whole entry partner): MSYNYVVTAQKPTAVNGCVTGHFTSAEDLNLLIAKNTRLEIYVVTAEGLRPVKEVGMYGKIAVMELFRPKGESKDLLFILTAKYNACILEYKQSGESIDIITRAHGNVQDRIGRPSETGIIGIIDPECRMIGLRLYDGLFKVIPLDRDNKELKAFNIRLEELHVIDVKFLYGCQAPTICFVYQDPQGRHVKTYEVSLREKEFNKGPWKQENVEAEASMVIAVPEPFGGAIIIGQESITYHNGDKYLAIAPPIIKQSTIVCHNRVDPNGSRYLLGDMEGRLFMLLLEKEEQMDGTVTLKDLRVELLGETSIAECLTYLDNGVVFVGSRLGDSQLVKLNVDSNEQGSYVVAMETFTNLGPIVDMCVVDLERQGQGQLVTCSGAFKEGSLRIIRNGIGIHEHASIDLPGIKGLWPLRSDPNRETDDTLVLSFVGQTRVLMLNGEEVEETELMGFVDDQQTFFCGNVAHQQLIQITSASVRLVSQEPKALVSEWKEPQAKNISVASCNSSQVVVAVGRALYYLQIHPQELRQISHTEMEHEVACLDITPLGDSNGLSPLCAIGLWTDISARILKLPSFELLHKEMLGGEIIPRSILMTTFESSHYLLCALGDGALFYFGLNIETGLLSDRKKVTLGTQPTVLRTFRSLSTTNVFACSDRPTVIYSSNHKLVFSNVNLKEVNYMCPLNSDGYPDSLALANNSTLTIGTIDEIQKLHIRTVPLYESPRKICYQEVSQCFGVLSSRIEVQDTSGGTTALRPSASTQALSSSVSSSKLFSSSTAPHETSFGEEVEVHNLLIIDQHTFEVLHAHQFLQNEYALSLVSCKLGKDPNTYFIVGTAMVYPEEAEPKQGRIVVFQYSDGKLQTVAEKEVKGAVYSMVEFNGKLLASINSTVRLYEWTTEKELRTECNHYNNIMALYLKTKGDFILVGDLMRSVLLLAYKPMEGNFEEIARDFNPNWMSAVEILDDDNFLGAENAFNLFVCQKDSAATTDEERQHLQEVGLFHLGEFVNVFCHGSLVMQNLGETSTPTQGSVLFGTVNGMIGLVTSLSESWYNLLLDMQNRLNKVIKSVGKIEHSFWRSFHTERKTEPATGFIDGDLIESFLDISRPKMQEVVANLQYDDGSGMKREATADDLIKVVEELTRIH

T2 sequence (Q13422 whole entry): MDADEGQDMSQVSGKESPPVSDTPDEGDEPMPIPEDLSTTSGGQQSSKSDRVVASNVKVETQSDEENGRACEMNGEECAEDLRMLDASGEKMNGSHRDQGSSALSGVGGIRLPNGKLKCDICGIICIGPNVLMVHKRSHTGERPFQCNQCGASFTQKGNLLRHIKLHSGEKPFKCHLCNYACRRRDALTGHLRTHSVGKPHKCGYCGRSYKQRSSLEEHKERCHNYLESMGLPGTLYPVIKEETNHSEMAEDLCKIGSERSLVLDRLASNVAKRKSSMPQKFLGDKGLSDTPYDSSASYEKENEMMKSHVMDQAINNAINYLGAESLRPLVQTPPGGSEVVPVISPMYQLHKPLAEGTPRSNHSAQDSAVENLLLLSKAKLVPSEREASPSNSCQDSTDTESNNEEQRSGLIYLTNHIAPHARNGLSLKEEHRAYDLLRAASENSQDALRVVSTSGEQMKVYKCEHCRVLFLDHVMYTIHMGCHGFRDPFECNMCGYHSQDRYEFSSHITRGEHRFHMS
T2 sequence (Q96SW2 whole entry): as the sequence (Q96SW2 whole entry) above
T2 sequence (Q16531 whole entry partner): as the sequence (Q16531 whole entry partner) above
T1 sequence (Q96SW2 whole entry): as the sequence (Q96SW2 whole entry) above
T4 sequence (P15170 whole entry): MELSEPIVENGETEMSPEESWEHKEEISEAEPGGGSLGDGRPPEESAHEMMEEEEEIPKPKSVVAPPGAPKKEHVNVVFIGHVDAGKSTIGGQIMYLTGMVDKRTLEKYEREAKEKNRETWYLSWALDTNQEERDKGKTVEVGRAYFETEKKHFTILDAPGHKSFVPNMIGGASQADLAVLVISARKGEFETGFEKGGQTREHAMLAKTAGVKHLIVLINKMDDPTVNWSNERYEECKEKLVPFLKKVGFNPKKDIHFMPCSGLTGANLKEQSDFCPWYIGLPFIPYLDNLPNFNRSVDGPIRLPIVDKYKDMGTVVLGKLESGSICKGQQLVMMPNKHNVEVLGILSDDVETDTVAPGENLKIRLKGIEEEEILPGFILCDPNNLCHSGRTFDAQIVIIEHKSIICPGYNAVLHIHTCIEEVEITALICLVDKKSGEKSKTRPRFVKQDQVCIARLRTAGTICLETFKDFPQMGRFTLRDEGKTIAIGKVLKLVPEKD
T4 sequence (Q96SW2 whole entry): as the sequence (Q96SW2 whole entry) above
T4 sequence (Q16531 whole entry partner): as the sequence (Q16531 whole entry partner) above
T6 sequence (P48729 whole entry): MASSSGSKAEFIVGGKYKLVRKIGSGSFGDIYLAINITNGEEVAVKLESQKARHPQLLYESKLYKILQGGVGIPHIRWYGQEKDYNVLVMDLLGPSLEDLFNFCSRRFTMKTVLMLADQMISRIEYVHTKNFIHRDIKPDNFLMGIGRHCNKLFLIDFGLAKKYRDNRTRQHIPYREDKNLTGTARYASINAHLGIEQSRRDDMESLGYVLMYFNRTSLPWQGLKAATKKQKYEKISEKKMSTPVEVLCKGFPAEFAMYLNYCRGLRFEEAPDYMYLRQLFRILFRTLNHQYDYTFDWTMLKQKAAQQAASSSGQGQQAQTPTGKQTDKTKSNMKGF
T6 sequence (Q96SW2 whole entry): as the sequence (Q96SW2 whole entry) above
T6 sequence (Q16531 whole entry partner): as the sequence (Q16531 whole entry partner) above
T5 sequence (Q9UKT9 whole entry): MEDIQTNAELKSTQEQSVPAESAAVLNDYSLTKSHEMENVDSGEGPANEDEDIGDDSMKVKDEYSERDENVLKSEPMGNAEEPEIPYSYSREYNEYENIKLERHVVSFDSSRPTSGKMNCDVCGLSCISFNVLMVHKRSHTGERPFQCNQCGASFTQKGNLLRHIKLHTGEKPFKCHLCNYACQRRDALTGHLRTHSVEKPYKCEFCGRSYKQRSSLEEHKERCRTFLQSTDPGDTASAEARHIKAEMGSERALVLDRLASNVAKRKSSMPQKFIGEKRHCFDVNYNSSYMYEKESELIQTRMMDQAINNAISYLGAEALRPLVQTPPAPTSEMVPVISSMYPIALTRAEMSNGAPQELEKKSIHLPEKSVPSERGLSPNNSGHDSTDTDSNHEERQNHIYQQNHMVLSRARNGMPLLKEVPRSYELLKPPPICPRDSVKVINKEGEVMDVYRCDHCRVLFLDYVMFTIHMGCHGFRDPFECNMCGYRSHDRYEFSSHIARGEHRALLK
T5 sequence (Q96SW2 whole entry): as the sequence (Q96SW2 whole entry) above
T5 sequence (Q16531 whole entry partner): as the sequence (Q16531 whole entry partner) above

| Compound | IC50 [1] [µM] | IKZF 1 substrate protein remaining % (IKZF1) | Weel substrate protein remaining % (WEE1) | GSPT1 substrate protein remaining % (GSPT1) | IKZF3 substrate protein remaining % (IKZF3) | CK1a substrate protein remaining % (CK1α) | IKZF2 substrate protein remaining % (IKZF2) |
| --- | --- | --- | --- | --- | --- | --- | --- |
| O=C1CCC(N2Cc3cc(CN4CCN(c5ccc(Cl)nc5)CC4)ccc3C2=O)C(=O)N1 (stereo not shown) [GT-04537, 3-(5-((4-(6-chloropyridin-3-yl)piperazin-1-yl)methyl)-1-oxoisoindolin-2-yl)piperidine-2,6-dione] | 0.5 to 1 | A (0% ≤ substrate protein remaining % ≤ 80%) | A (0% ≤ substrate protein remaining % ≤ 80%) | A (0% ≤ substrate protein remaining % ≤ 80%) | A (0% ≤ substrate protein remaining % ≤ 80%) | A (0% ≤ substrate protein remaining % ≤ 80%) | A (0% ≤ substrate protein remaining % ≤ 80%) |
| Cc1cc(N2CCN(Cc3ccc4c(c3)CN(C3CCC(=O)NC3=O)C4=O)CC2)ccn1 (stereo not shown) [GT-04541, 3-(5-((4-(2-methylpyridin-4-yl)piperazin-1-yl)methyl)-1-oxoisoindolin-2-yl)piperidine-2,6-dione] | 0.5 to 1 | A (0% ≤ substrate protein remaining % ≤ 80%) | A (0% ≤ substrate protein remaining % ≤ 80%) | B (80%< substrate protein remaining %≤ 100%) | A (0% ≤ substrate protein remaining % ≤ 80%) | B (80%< substrate protein remaining %≤ 100%) | A (0% ≤ substrate protein remaining % ≤ 80%) |
| O=C1CCC(N2Cc3cc(CN4CCN(c5ccnc(Cl)c5Cl)CC4)ccc3C2=O)C(=O)N1 (stereo not shown) [GT-04542, 3-(5-((4-(2,3-dichloropyridin-4-yl)piperazin-1-yl)methyl)-1-oxoisoindolin-2-yl)piperidine-2,6-dione] | < 0.5 | A (0% ≤ substrate protein remaining % ≤ 80%) | A (0% ≤ substrate protein remaining % ≤ 80%) | A (0% ≤ substrate protein remaining % ≤ 80%) | A (0% ≤ substrate protein remaining % ≤ 80%) | B (80%< substrate protein remaining %≤ 100%) | A (0% ≤ substrate protein remaining % ≤ 80%) |
| O=C1CCC(N2Cc3cc(CN4CCN(c5ccnc(F)c5F)CC4)ccc3C2=O)C(=O)N1 (stereo not shown) [GT-04543, 3-(5-((4-(2,3-difluoropyridin-4-yl)piperazin-1-yl)methyl)-1-oxoisoindolin-2-yl)piperidine-2,6-dione] | 0.5 to 1 | A (0% ≤ substrate protein remaining % ≤ 80%) | A (0% ≤ substrate protein remaining % ≤ 80%) | A (0% ≤ substrate protein remaining % ≤ 80%) | A (0% ≤ substrate protein remaining % ≤ 80%) | B (80%< substrate protein remaining %≤ 100%) | A (0% ≤ substrate protein remaining % ≤ 80%) |
| O=C1CCC(N2Cc3cc(CN4CCC(c5ccnc(F)c5F)CC4)ccc3C2=O)C(=O)N1 (stereo not shown) [GT-04556, 3-(5-((4-(2,3-difluoropyridin-4-yl)piperidin-1-yl)methyl)-1-oxoisoindolin-2-yl)piperidine-2,6-dione] | 0.5 to 1 | A (0% ≤ substrate protein remaining % ≤ 80%) | A (0% ≤ substrate protein remaining % ≤ 80%) | A (0% ≤ substrate protein remaining % ≤ 80%) | A (0% ≤ substrate protein remaining % ≤ 80%) | A (0% ≤ substrate protein remaining % ≤ 80%) | A (0% ≤ substrate protein remaining % ≤ 80%) |
| O=C1CCC(N2Cc3cc(CN4CCN(c5nccc(I)c5F)CC4)ccc3C2=O)C(=O)N1 (stereo not shown) [GT-04557, 3-(5-((4-(3-fluoro-4-iodopyridin-2-yl)piperazin-1-yl)methyl)-1-oxoisoindolin-2-yl)piperidine-2,6-dione] | 0.5 to 1 | A (0% ≤ substrate protein remaining % ≤ 80%) | A (0% ≤ substrate protein remaining % ≤ 80%) | A (0% ≤ substrate protein remaining % ≤ 80%) | A (0% ≤ substrate protein remaining % ≤ 80%) | A (0% ≤ substrate protein remaining % ≤ 80%) | A (0% ≤ substrate protein remaining % ≤ 80%) |
| O=C1CCC(N2Cc3cc(CN4CCN(c5ncccc5F)CC4)ccc3C2=O)C(=O)N1 (stereo not shown) [GT-04578, 3-(5-((4-(3-fluoropyridin-2-yl)piperazin-1-yl)methyl)-1-oxoisoindolin-2-yl)piperidine-2,6-dione] | 1 to 1.5 | B (80%< substrate protein remaining %≤ 100%) | B (80%< substrate protein remaining %≤ 100%) | A (0% ≤ substrate protein remaining % ≤ 80%) | B (80%< substrate protein remaining %≤ 100%) | A (0% ≤ substrate protein remaining % ≤ 80%) | A (0% ≤ substrate protein remaining % ≤ 80%) |

Second part, led by results:

| IC50 [1] [µM] | Compound | IKZF 1 substrate protein remaining % (IKZF1) | Weel substrate protein remaining % (WEE1) | GSPT1 substrate protein remaining % (GSPT1) | IKZF3 substrate protein remaining % (IKZF3) | CK1a substrate protein remaining % (CK1α) | IKZF2 substrate protein remaining % (IKZF2) |
| --- | --- | --- | --- | --- | --- | --- | --- |
| 1.5 to 1.9 | O=C1CCC(N2Cc3cc(CN4CCN(c5nccc(F)c5F)CC4)ccc3C2=O)C(=O)N1 (stereo not shown) [GT-04579, 3-(5-((4-(3,4-difluoropyridin-2-yl)piperazin-1-yl)methyl)-1-oxoisoindolin-2-yl)piperidine-2,6-dione] | B (80%< substrate protein remaining %≤ 100%) | B (80%< substrate protein remaining %≤ 100%) | B (80%< substrate protein remaining %≤ 100%) | B (80%< substrate protein remaining %≤ 100%) | A (0% ≤ substrate protein remaining % ≤ 80%) | B (80%< substrate protein remaining %≤ 100%) |
| 0.5 to 1 | O=C1CCC(N2Cc3cc(CN4CCN(c5ccncc5Br)CC4)ccc3C2=O)C(=O)N1 (stereo not shown) [GT-04580, 3-(5-((4-(3-bromopyridin-4-yl)piperazin-1-yl)methyl)-1-oxoisoindolin-2-yl)piperidine-2,6-dione] | A (0% ≤ substrate protein remaining % ≤ 80%) | A (0% ≤ substrate protein remaining % ≤ 80%) | B (80%< substrate protein remaining %≤ 100%) | A (0% ≤ substrate protein remaining % ≤ 80%) | A (0% ≤ substrate protein remaining % ≤ 80%) | A (0% ≤ substrate protein remaining % ≤ 80%) |
| 1 to 1.5 | O=C1CCC(N2Cc3cc(CN4CCN(c5ccncc5F)CC4)ccc3C2=O)C(=O)N1 (stereo not shown) [GT-04581, 3-(5-((4-(3-fluoropyridin-4-yl)piperazin-1-yl)methyl)-1-oxoisoindolin-2-yl)piperidine-2,6-dione] | B (80%< substrate protein remaining %≤ 100%) | B (80%< substrate protein remaining %≤ 100%) | B (80%< substrate protein remaining %≤ 100%) | A (0% ≤ substrate protein remaining % ≤ 80%) | B (80%< substrate protein remaining %≤ 100%) | A (0% ≤ substrate protein remaining % ≤ 80%) |
| 1 to 1.5 | O=C1CCC(N2Cc3cc(CN4CCC(c5ccoc5)CC4)ccc3C2=O)C(=O)N1 (stereo not shown) [GT-04590, 3-(5-((4-(furan-3-yl)piperidin-1-yl)methyl)-1-oxoisoindolin-2-yl)piperidine-2,6-dione] | B (80%< substrate protein remaining %≤ 100%) | B (80%< substrate protein remaining %≤ 100%) | A (0% ≤ substrate protein remaining % ≤ 80%) | B (80%< substrate protein remaining %≤ 100%) | B (80%< substrate protein remaining %≤ 100%) | A (0% ≤ substrate protein remaining % ≤ 80%) |
| 1.5 to 1.9 | O=C1CCC(N2Cc3cc(CN4CCCC(C5CCNCC5)C4)ccc3C2=O)C(=O)N1 (stereo not shown) [GT-04591, 3-(5-([3,4'-bipiperidin]-1-ylmethyl)-1-oxoisoindolin-2-yl)piperidine-2,6-dione] | B (80%< substrate protein remaining %≤ 100%) | B (80%< substrate protein remaining %≤ 100%) | A (0% ≤ substrate protein remaining % ≤ 80%) | B (80%< substrate protein remaining %≤ 100%) | A (0% ≤ substrate protein remaining % ≤ 80%) | B (80%< substrate protein remaining %≤ 100%) |
| 0.5 to 1 | O=C1CCC(N2Cc3cc(CN4CCN(c5c(Cl)cncc5Br)CC4)ccc3C2=O)C(=O)N1 (stereo not shown) [GT-04600, 3-(5-((4-(3-bromo-5-chloropyridin-4-yl)piperazin-1-yl)methyl)-1-oxoisoindolin-2-yl)piperidine-2,6-dione] | A (0% ≤ substrate protein remaining % ≤ 80%) | A (0% ≤ substrate protein remaining % ≤ 80%) | A (0% ≤ substrate protein remaining % ≤ 80%) | A (0% ≤ substrate protein remaining % ≤ 80%) | B (80%< substrate protein remaining %≤ 100%) | A (0% ≤ substrate protein remaining % ≤ 80%) |
